# Assay results from ChEMBL document CHEMBL1201862, “PubChem BioAssay data set” (2004).
# Values joined by “and” are separate entries in the source; they are usually repeats but may differ in a detail not shown here. Identical values can stand only once.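 96-well plates; 48 h exposure; 5 concentrations. Endpoints by linear interpolation between flanking doses. Not reached: highest tested concentration assigned. At the GI50, growth is halved.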 Active and inactive are the calls of the source. Rule as the data show it: active = GI50 up to about 1.1 µM and inactive = higher.
# Key:
# Test in all cases: DTP human tumour cell line panel, 48 h
# A498 = tested on: A498
# CAKI-1 = tested on: CAKI-1
# DU-145 = tested on: DU-145
# HCT-15 = tested on: HCT-15
# HL-60 = tested on: HL-60
# HT-29 = tested on: HT-29
# M14 = tested on: M14
# MDA-MB-231 = tested on: MDA-MB-231
# MDA-N = tested on: MDA-N
# MOLT-4 = tested on: MOLT-4
# SF-268 = tested on: SF-268
# SK-MEL-2 = tested on: SK-MEL-2
# SK-MEL-5 = tested on: SK-MEL-5
# SN12C = tested on: SN12C
# T47D = tested on: T47D
# U-251 = tested on: U-251
# UACC-62 = tested on: UACC-62
# COLO 205 = tested on: COLO 205
# NCI-H522 = tested on: NCI-H522
# RXF 393 = tested on: RXF 393
SMILES,GI50 (A498),GI50 (CAKI-1),GI50 (DU-145),GI50 (HCT-15) [µM],GI50 (HL-60),GI50 (HT-29),GI50 (M14),GI50 (MDA-MB-231),GI50 (MDA-N),GI50 (MOLT-4),GI50 (SF-268),GI50 (SK-MEL-2),GI50 (SK-MEL-5),GI50 (SN12C),GI50 (T47D),GI50 (U-251),GI50 (UACC-62),GI50 (COLO 205),GI50 (NCI-H522),GI50 (RXF 393)
Cc1c2c(n3c(nc4ccccc43)c1C#N)SCC2,3.36 µM (inactive),> 10 µM (inactive),> 10 µM (inactive),> 10,> 10 µM (inactive),> 10 µM (inactive),> 10 µM (inactive),> 10 µM (inactive),> 10 µM (inactive),> 10 µM (inactive),> 10 µM (inactive),> 10 µM (inactive),> 10 µM (inactive),> 10 µM (inactive),> 10 µM (inactive),> 10 µM (inactive),> 10 µM (inactive),–,–,–
NCCCCN(CCCN)C(=O)c1ccccc1,> 100 µM (inactive),> 100 µM (inactive),> 100 µM (inactive),> 100,> 100 µM (inactive),> 100 µM (inactive),> 100 µM (inactive),> 100 µM (inactive),–,> 100 µM (inactive),> 100 µM (inactive),> 100 µM (inactive),> 100 µM (inactive),> 100 µM (inactive),> 100 µM (inactive),> 100 µM (inactive),> 100 µM (inactive),> 100 µM (inactive),> 100 µM (inactive),> 100 µM (inactive)
N#CC1(C#N)C2C=CC(C3CC=CC32)C1(C#N)C#N (stereo not given),9.84 µM (inactive),2.08 µM (inactive),9.55 µM (inactive),1.98,1.12 µM (inactive),9.71 µM (inactive),2.01 µM (inactive),9.79 µM (inactive),–,1.48 µM (inactive),11.2 µM (inactive),13.1 µM (inactive),7.73 µM (inactive),10.4 µM (inactive),3.38 µM (inactive),10.4 µM (inactive),8.77 µM (inactive),2.07 µM (inactive),1.22 µM (inactive),5.16 µM (inactive)
CN(C)CCn1c(=O)c2ccc(NCCCN(C)CCCNc3ccc4c(=O)n(CCN(C)C)c(=O)n5c6ccccc6c(=O)c3c45)c3c(=O)c4ccccc4n(c1=O)c23,0.0571 µM (active),0.0172 µM (active),< 0.01 µM (active),< 0.01,< 0.01 µM (active),< 0.01 µM (active),0.167 µM (active),< 0.0405 µM (active),–,< 0.01 µM (active),0.258 µM (active),0.107 µM (active),< 0.0106 µM (active),< 0.01 µM (active),0.54 µM (active),< 0.01 µM (active),0.151 µM (active),< 0.01 µM (active),< 0.01 µM (active),< 0.0149 µM (active)
Cc1cn([C@H]2[C@@H](CO)C[C@H]2O)c(=O)[nH]c1=O,> 100 µM (inactive),> 100 µM (inactive),> 100 µM (inactive),> 100,> 100 µM (inactive),> 100 µM (inactive),–,> 100 µM (inactive),> 100 µM (inactive),> 100 µM (inactive),> 100 µM (inactive),> 100 µM (inactive),> 100 µM (inactive),> 100 µM (inactive),–,> 100 µM (inactive),–,> 100 µM (inactive),> 100 µM (inactive),> 100 µM (inactive)
C/C=C/c1c(O)c(=O)c2c(OC)cc(OC)c3c4c(OC)cc(OC)c5c(=O)c(O)c(/C=C/C)c(c1c23)c54,32.6 µM (inactive),6.14 µM (inactive),8.07 µM (inactive),6.49,–,6.22 µM (inactive),9.42 µM (inactive),10.4 µM (inactive),6.87 µM (inactive),4.03 µM (inactive),7.66 µM (inactive),10.2 µM (inactive),5.73 µM (inactive),16.5 µM (inactive),–,7.23 µM (inactive),6.3 µM (inactive),3.7 µM (inactive),4.71 µM (inactive),–
C=C1C[C@]23CC[C@@H]4C(CO)(CO)CC(=O)C[C@]4(C)[C@@H]2CC[C@H]1C3,–,> 100 µM (inactive),> 100 µM (inactive),> 100,> 100 µM (inactive),> 100 µM (inactive),> 100 µM (inactive),> 100 µM (inactive),> 100 µM (inactive),> 100 µM (inactive),> 100 µM (inactive),> 100 µM (inactive),–,> 100 µM (inactive),–,> 100 µM (inactive),> 100 µM (inactive),> 100 µM (inactive),> 100 µM (inactive),–
CCCCCCC(=O)O[C@H]1CC[C@H]2[C@@H]3CCC4C/C(=N/NC(=O)c5cccc6c(=O)c7ccccc7[nH]c56)C=C(C)[C@]4(C)[C@H]3CC[C@]12C (stereo not given in full),–,> 25 µM (inactive),> 25 µM (inactive),> 25,> 25 µM (inactive),> 25 µM (inactive),> 25 µM (inactive),> 25 µM (inactive),> 25 µM (inactive),> 25 µM (inactive),> 25 µM (inactive),> 25 µM (inactive),> 25 µM (inactive),> 25 µM (inactive),> 25 µM (inactive),> 25 µM (inactive),> 25 µM (inactive),> 25 µM (inactive),–,–
COc1ccccc1/N=N/c1c(O)ccc2ccccc12,32.1 µM (inactive) and 23.5 µM (inactive),18.7 µM (inactive) and 25.6 µM (inactive),54.2 µM (inactive) and 98.9 µM (inactive),> 63.2,–,34.6 µM (inactive) and 30.7 µM (inactive),–,30.2 µM (inactive) and 28.5 µM (inactive),45.7 µM (inactive) and > 80.4 µM (inactive),64.3 µM (inactive),29.9 µM (inactive) and 33.4 µM (inactive),> 63.4 µM (inactive) and 65 µM (inactive),22.8 µM (inactive) and 20.7 µM (inactive),71.4 µM (inactive) and 60.8 µM (inactive),23.3 µM (inactive) and 38.2 µM (inactive),14.2 µM (inactive) and 18.9 µM (inactive),–,56.8 µM (inactive) and 64.7 µM (inactive),–,–
O=C1c2ccccc2C(=O)c2c1c1cc(O)ccc1n2Cc1ccc(Cl)cc1Cl,17.2 µM (inactive),3.9 µM (inactive),8.13 µM (inactive),5.66,46.7 µM (inactive),16.6 µM (inactive),15.9 µM (inactive),3.85 µM (inactive),12.1 µM (inactive),15.3 µM (inactive),12.9 µM (inactive),16 µM (inactive),17.2 µM (inactive),3.88 µM (inactive),–,3.46 µM (inactive),7.66 µM (inactive),15.1 µM (inactive),–,2.14 µM (inactive)
CC(C)NC(=O)N(Nc1ccccc1)C(C)(C)C,> 100 µM (inactive),> 100 µM (inactive),–,> 100,37.2 µM (inactive),> 100 µM (inactive),> 100 µM (inactive),> 100 µM (inactive),> 100 µM (inactive),> 100 µM (inactive),–,> 100 µM (inactive),> 100 µM (inactive),> 100 µM (inactive),–,> 100 µM (inactive),> 100 µM (inactive),> 100 µM (inactive),–,> 100 µM (inactive)
